Converted amounts (≈) assume the structure as drawn. The source made the active and inactive calls. The rule behind the calls is not given here.
Experiments:
[1] = Metabolic stability in human liver microsomes assessed as half-life preincubated for 10 mins followed by NADPH addition and measured after 60 mins by LC-MS/MS analysis; assay type: ADME, Microsome; details: time 70 min
[2] = Metabolic stability in human liver microsomes assessed as parent compound remaining preincubated for 10 mins followed by NADPH addition and measured after 60 mins by LC-MS/MS analysis; assay type: ADME, Microsome; details: time 70 min, read-out: Stability
Candida albicans [3] = assay: Fungicidal activity fluconazole and iodiconazole resistant Candida albicans clinical isolate 17# assessed as decrease in number of fungi at 8 times of MIC measured within 24 hrs by time-kill kinetics assay; assay type: functional, organism-based
[4] = Cytotoxicity against human NCI-H460 cells assessed as inhibition of cell growth incubated for 72 hrs by MTT assay; assay type: toxicity, cell-based
Cryptococcus neoformans = assay: Antifungal activity against Cryptococcus neoformans CGMCC 2.3161 assessed as inhibition of fungal growth by CLSI M27-A3 guidelines based method; assay type: functional
Candida albicans [5] = assay: Antifungal activity against Candida albicans SC5314 assessed as inhibition of fungal growth by CLSI M27-A3 guidelines based method; assay type: functional
Candida parapsilosis = assay: Antifungal activity against Candida parapsilosis GIM 2.190 assessed as inhibition of fungal growth by CLSI M27-A3 guidelines based method; assay type: functional; details: Lodderomyces parapsilosis
Candida albicans [6] = assay: Fungicidal activity against Candida albicans SC5314 incubated for 48 hrs by PDA plate based method; assay type: functional
Candida albicans [7] = assay: Antifungal activity against fluconazole-resistant Candida albicans clinical isolate 901 assessed as inhibition of fungal growth by CLSI M27-A3 guidelines based method; assay type: functional
[8] = Cytotoxicity against HEK293T cells assessed as inhibition of cell growth incubated for 72 hrs by MTT assay; assay type: toxicity, cell-based, HEK-293T; details: human
Candida albicans [9] = assay: Antifungal activity against fluconazole-resistant Candida albicans CaR assessed as inhibition of fungal growth by CLSI M27-A3 guidelines based method; assay type: functional
Nakaseomyces glabratus = assay: Antifungal activity against Candida glabrata assessed as inhibition of fungal growth by CLSI M27-A3 guidelines based method; assay type: functional
Pichia kudriavzevii = assay: Antifungal activity against Candida krusei GIM 2.1 assessed as inhibition of fungal growth by CLSI M27-A3 guidelines based method; assay type: functional
[10] = Cytotoxicity against human OVCAR-3 cells assessed as inhibition of cell growth incubated for 72 hrs by MTT assay; assay type: toxicity, cell-based
Candida tropicalis = assay: Antifungal activity against Candida tropicalis GIM 2.183 assessed as inhibition of fungal growth by CLSI M27-A3 guidelines based method; assay type: functional
Candida albicans [11] = assay: Antifungal activity against Candida albicans GIM 2.194 assessed as inhibition of fungal growth by CLSI M27-A3 guidelines based method; assay type: functional
Candida albicans [12] = assay: Antibiofilm activity against fluconazole-resistant Candida albicans CPCC400616 assessed as inhibition of metabolic activity of biofilm measured after 6 hrs by XTT reduction assay; assay type: functional
Candida albicans [13] = assay: Antifungal activity against fluconazole-resistant Candida albicans clinical isolate 632 assessed as inhibition of fungal growth by CLSI M27-A3 guidelines based method; assay type: functional
Candida albicans [14] = assay: Antifungal activity against fluconazole-resistant Candida albicans clinical isolate 311 assessed as inhibition of fungal growth by CLSI M27-A3 guidelines based method; assay type: functional
Candida albicans [15] = assay: Antifungal activity against fluconazole-resistant Candida albicans clinical isolate 904 assessed as inhibition of fungal growth by CLSI M27-A3 guidelines based method; assay type: functional
Candida albicans [16] = assay: Antibiofilm activity against fluconazole-resistant Candida albicans CPCC400616 assessed as inhibition of metabolic activity of biofilm measured after 24 hrs by XTT reduction assay; assay type: functional
Candida albicans [17] = assay: Antifungal activity against fluconazole and iodiconazole resistant Candida albicans clinical isolate 17# assessed as inhibition of fungal growth by CLSI M27-A3 guidelines based method; assay type: functional
Aspergillus fumigatus = assay: Antifungal activity against Aspergillus fumigatus cgmcc 3.7795 assessed as inhibition of fungal growth by CLSI M27-A3 guidelines based method; assay type: functional
Candida albicans [18] = assay: Fungicidal activity against fluconazole and iodiconazole resistant Candida albicans clinical isolate 17# incubated for 48 hrs by PDA plate based method; assay type: functional
Candida albicans [19] = assay: Selectivity ratio of MFC for fungicidal activity against Candida albicans SC5314 to MIC80 for antifungal activity against Candida albicans SC5314; assay type: functional
Candida albicans [20] = assay: Antifungal activity against fluconazole-resistant Candida albicans clinical isolate 100 assessed as inhibition of fungal growth by CLSI M27-A3 guidelines based method; assay type: functional
[21] = Cytotoxicity against HUVEC cells assessed as inhibition of cell growth incubated for 72 hrs by MTT assay; assay type: toxicity, cell-based; details: human
Candida albicans [22] = assay: Antifungal activity against fluconazole-resistant Candida albicans clinical isolate 103 assessed as inhibition of fungal growth by CLSI M27-A3 guidelines based method; assay type: functional
Candida albicans [23] = assay: Effect on sterol composition in Candida albicans SC5314 assessed as 14alpha-demethyllanosterol content at 4 microg/ml measured after 16 hrs by GC-MS analysis (reference value: 1.98 %); assay type: functional; details: dose 4 µg/ml
Candida albicans [24] = assay: Effect on sterol composition in Candida albicans SC5314 assessed as ergosterol content at 4 microg/ml measured after 16 hrs by GC-MS analysis (reference value: 96.96 %); assay type: functional; details: dose 4 µg/ml
Candida albicans [25] = assay: Fungicidal activity fluconazole and iodiconazole resistant Candida albicans clinical isolate 17# assessed as decrease in number of fungi at 16 microg/ml measured within 24 hrs by time-kill kinetics assay; assay type: functional, organism-based; details: dose 16.0 µg/ml
Candida albicans [26] = assay: Effect on sterol composition in Candida albicans SC5314 assessed as lanosterol content at 4 microg/ml measured after 16 hrs by GC-MS analysis relative to control; assay type: functional; details: dose 4 µg/ml
Candida albicans [27] = assay: Effect on sterol composition in Candida albicans SC5314 assessed as eburicol content at 4 microg/ml measured after 16 hrs by GC-MS analysis relative to control; assay type: functional; details: dose 4 µg/ml
Candida albicans [28] = assay: Effect on sterol composition in Candida albicans SC5314 assessed as obtusifoliol content at 4 microg/ml measured after 16 hrs by GC-MS analysis relative to control; assay type: functional; details: dose 4 µg/ml
Candida albicans [29] = assay: Effect on sterol composition in Candida albicans SC5314 assessed as other sterols content at 4 microg/ml measured after 16 hrs by GC-MS analysis (reference value: 1.06 %); assay type: functional; details: dose 4 µg/ml
Candida albicans [30] = assay: Inhibition of hyphal formation in fluconazole-resistant Candida albicans CPCC400616 assessed as reduction in invasive ability at 2 microg/ml measured after 4 hrs by inverted microscopic analysis; assay type: functional, organism-based; details: dose 2.0 µg/ml

| Structure (SMILES) | half-life [1] [min] | remaining at 1 h [2] [%] | IC50 at 72 h [4] [µM] | MIC80 (Cryptococcus neoformans) [µg/mL] | MIC80 (Candida albicans [5]) [µg/mL] | MIC80 (Candida parapsilosis) [µg/mL] | MFC (Candida albicans [6]) [µg/mL] | MIC80 (Candida albicans [7]) [µg/mL] | IC50 at 72 h [8] [µM] | MIC80 (Candida albicans [9]) [µg/mL] | MIC80 (Nakaseomyces glabratus) [µg/mL] | MIC80 (Pichia kudriavzevii) [µg/mL] | IC50 at 72 h [10] [µM] | MIC80 (Candida tropicalis) [µg/mL] | MIC80 (Candida albicans [11]) [µg/mL] | MIC50 (Candida albicans [12]) [µg/mL] | MIC80 (Candida albicans [13]) [µg/mL] | MIC80 (Candida albicans [14]) [µg/mL] | MIC80 (Candida albicans [15]) [µg/mL] | MIC50 (Candida albicans [16]) [µg/mL] | further results |
| --- | --- | --- | --- | --- | --- | --- | --- | --- | --- | --- | --- | --- | --- | --- | --- | --- | --- | --- | --- | --- | --- |
| CN(Cc1ccc(I)cc1)CC(O)(Cn1cncn1)c1ccc(F)cc1F (centres undefined) | 20.4 | 13.1 | > 10 | 0.1 (≈ 0.206 µM) | 0.013 (≈ 0.0268 µM) | 0.025 (≈ 0.0516 µM) | 32 (≈ 66.1 µM) | > 64 | > 10 | 2 (≈ 4.13 µM) | 0.2 (≈ 0.413 µM) | 0.2 (≈ 0.413 µM) | > 10 | 0.013 (≈ 0.0268 µM) | 0.025 (≈ 0.0516 µM) | 8 (≈ 16.5 µM) | 16 (≈ 33 µM) | > 64 | 8 (≈ 16.5 µM) | 16 (≈ 33 µM) | Activity (Candida albicans [3]): inactive; MIC80 (Candida albicans [17]): 0.25 µg/mL (≈ 0.516 µM); MIC80 (Aspergillus fumigatus): 0.25 µg/mL (≈ 0.516 µM); MFC (Candida albicans [18]): 32 µg/mL (≈ 66.1 µM); Selectivity ratio (Candida albicans [19]): >256; MIC80 (Candida albicans [20]): 2 µg/mL (≈ 4.13 µM); IC50 at 72 h [21]: > 10 µM; MIC80 (Candida albicans [22]): 32 µg/mL (≈ 66.1 µM) |
| OC(Cn1cncn1)(Cn1cncn1)c1ccc(F)cc1F [FLUCONAZOLE] | – | – | > 40 | 4 (≈ 13.1 µM) | 0.25 (≈ 0.816 µM) | 1 (≈ 3.27 µM) | > 64 | > 64 | > 40 | > 64 | 8 (≈ 26.1 µM) | 8 (≈ 26.1 µM) | > 40 | 0.25 (≈ 0.816 µM) | 0.5 (≈ 1.63 µM) | 16 (≈ 52.2 µM) | > 64 | > 64 | > 64 | > 32 | Activity (Candida albicans [23]): 3.03%; Activity (Candida albicans [24]): 4.57%; Activity (Candida albicans [25]): inactive; Activity (Candida albicans [26]): 9.3%; Activity (Candida albicans [27]): 60.09%; MIC80 (Candida albicans [17]): > 64 µg/mL; MIC80 (Aspergillus fumigatus): 64 µg/mL (≈ 209 µM); MFC (Candida albicans [18]): > 64 µg/mL; Activity (Candida albicans [28]): 14.37%; Activity (Candida albicans [29]): 8.64%; MIC80 (Candida albicans [20]): > 64 µg/mL; inhibition (Candida albicans [30]): inactive; IC50 at 72 h [21]: > 40 µM; MIC80 (Candida albicans [22]): > 64 µg/mL |
| CN(Cc1ccc(C#Cc2ccc(F)cc2F)cc1)CC(O)(Cn1cncn1)c1ccc(F)cc1F (centres undefined) | 26.3 | 20.9 | – | 0.013 (≈ 0.0263 µM) | 0.006 (≈ 0.0121 µM) | 0.006 (≈ 0.0121 µM) | – | – | – | – | 0.01 (≈ 0.0202 µM) | 0.01 (≈ 0.0202 µM) | – | 0.006 (≈ 0.0121 µM) | 0.006 (≈ 0.0121 µM) | – | – | – | – | – | – |

Reference: ChEMBL document CHEMBL6092180 (Eur J Med Chem, 2024)
